Reference: EP4613273A1, “TREATMENT OF BONE LOSS” (priority 2024, dated 2025)
Structures can show the parent of a compound that is named as a salt. Where two headings read alike, the source gives them in different places.

Assays:
Assay type in all cases: in vivo
[1] = system: CTX-1; test: Plasma CTX-1 (bone resorption marker) in healthy cats; conditions: for pre-dose plasma CTX-1 during repeated administration: once-a-day oral 2 and 10 mg/kg, 14 days
Description: (§1) MIV-701 besylate salt was administered once daily for 14 days to 4 healthy cats at three increasing doses: 2 mg/kg, 10 mg/kg and 50 mg/kg.
(§2) The three doses were consecutively administered for 14 days with a >5-day washout period between two dose levels.
(§3) Each treatment period can be resumed as follows: • J0 (T+24h): first administration, withdrawal of blood samples for pharmacokinetic and plasma CTX-1 assessment (pre-dose and 0.5h, 1h, 2h, 4h, 8h and 24h after first drug administration), pre-dose blood samples for hematology and clinical biochemistry (baseline values for safety assessment). • J5 ([…]) and J8: pre-dose blood samples. • J13: last administration, withdrawal of plasma samples for pharmacokinetic and plasma CTX-1 assessment (pre-dose and 0.5h, 1h, 2h, 4h, 8h and 24h after last drug administration), pre-dose sampling for hematology and clinical biochemistry (baseline values for safety assessment). • J15 to J≥19: washout period.

[2] = Safety of repeated oral administration in healthy cats
Description: as §1, §2, §3

[3] = Plasma pharmacokinetic of MIV-701 after single and repeated oral administration of MIV-701 besylate salt in healthy cats; conditions: for Cmax at 312 h / Tmax at 312 h / AUC(0-inf) at 312 h / AUC(0-t) at 312 h / half-life at 312 h / Cmax / Tmax at 0 h / AUC(0-inf) / AUC(0-t) / half-life: cat; for AUC(0-inf) at 312 h / AUC(0-inf): read-out: AUC(0-infini) (converted); for AUC(0-t) at 312 h / AUC(0-t): read-out: AUC(0-tfinal) (converted); for half-life at 312 h / half-life: read-out: T1/2 elimination (converted)
Description: as §1, §2, §3
After centrifugation of blood samples plasma aliquots were stored at -20°C._After thawing on ice, 30 µL of plasma were transferred into 1.5 ml microtube containing 270 µL acetonitrile. Microtubes were then vigorously stirred and then centrifuged (12000 rpm, 10 min, 4°C) and the supernatant was transferred in Matrix tube for LC-MS/MS analysis.
A calibration curve (9 points, 3 to 30 000 nM) was obtained by spiking plasma samples from naive cats with appropriate quantities of Compound I.
Equipment: LC-MS/MS Acquity I Class-Wevo TQD (Waters®): - Acquity I Class ∘ Column: Waters® Acquity BEH C8, 50*2.1mm, 1.7 µm (40°C) ∘ Mobile phase: • ▪ A: Ammonium Formate 5mM, pH=3.8 • ▪ B: Ammonimuformate 5 mM in CH3CN 5% aqueous, pH=3.8 ∘ Injection volume: 1 µL ∘ Speed: 600 µL/min ∘ Gradient: […]
- Xevo TQD • ∘ Source temperature: 150°C • ∘ Desolvatation temperature: 600°C • ∘ Cone gaz speed: 50L/h • ∘ Desolvatation gaz speed: 1200L/h - Analytes MS characteristics
Terminal elimination half-life (t1/2) was calculated according to the following formula: T1/2 elimination = ln(2)/kel [formula] kel= slope of ln(C)=f(temps) calculated on the last points of the curves (elimination phase)/ MIV-701 exposure (Area Under the Curve; AUCt) was calculated according to trapezoidal method accroding to the following formula: AUCt−>inf = [C]t /kel [formula]

[4] = plasma MIV-701, oral 2 mg/kg once daily, Day 13 (repeated)
[5] = plasma MIV-701, oral 2 mg/kg, Day 0 (single)
[6] = plasma MIV-701, oral 10 mg/kg once daily, Day 13 (repeated)
[7] = plasma MIV-701, oral 10 mg/kg, Day 0 (single)
[8] = plasma MIV-701, oral 50 mg/kg, Day 0 (single)

CC(C)C[C@H](NC(=O)c1ccc(-c2csc(N3CCN(C)CC3)n2)cc1)C(=O)N1C[C@H](F)[C@H]2OCC(O)(O)[C@H]21 [MIV-701 besylate salt, N-[(S)-1-((3aS,6S,6aS)-6-Fluoro-S-oxo-hexahydro-furo[3,2-b]pyrrole-4-carbony)-3-methyl-butyl]-4-[2-(4-methyl-piperazin-1-yl)-thiazol-4-yl]-benzamide benzenesulphonate]
inhibition of plasma CTX-1 vs baseline ([1]; 10 mg/kg once a day, end of the 14 days treatment period): 60% | time of CTX-1 inhibition peak after administration ([1]; D0, three doses tested): 4 h | pre-dose plasma CTX-1 during repeated administration [1]: rapid drop | pre-dose plasma CTX-1 during repeated administration ([1]; listed as MIV-701-besylate): sustained inhibition | CTX-1 plasma concentration 24 hours after administration ([1]; single dose, all doses tested): did not go back to pre-dose concentration | reduction of plasma CTX-1 ([1]; single oral administration (D0) at 2, 10 and 50 mg/kg): comparable reduction of plasma CTX-1 | adverse or irreversible effect ([2]; oral 2 mg/kg/day and 10 mg/kg/day during 14 days): did not induce any adverse or irreversible effect | adverse signs ([2]; oral 50 mg/kg/day during 4 days, led to treatment withdrawal, reversible): induced some digestive and behavioral degradations | plasma exposure (AUC) at D13 higher than AUC at D0 ([3]; 2 mg/kg): 1.2 folds | plasma exposure (AUC) at D13 higher than AUC at D0 ([3]; 10 mg/kg): 1.9 folds | Cmax at 312 h [3, 4]: 141 nM | Tmax at 312 h [3, 4]: 2 h | AUC(0-inf) at 312 h [3, 4]: 0.984 µM·h | AUC(0-t) at 312 h [3, 4]: 0.972 µM·h | half-life at 312 h [3, 4]: 234 min | Cmax [3, 5]: 122 nM | Tmax at 0 h [3, 5]: 2 h | AUC(0-inf) [3, 5]: 0.811 µM·h | AUC(0-t) [3, 5]: 0.808 µM·h | half-life [3, 5]: 174 min | Cmax at 312 h [3, 6]: 663 nM | Tmax at 312 h [3, 6]: 0.5 h | AUC(0-inf) at 312 h [3, 6]: 5.3 µM·h | AUC(0-t) at 312 h [3, 6]: 5.07 µM·h | half-life at 312 h [3, 6]: 342 min | Cmax [3, 7]: 249 nM | Tmax at 0 h [3, 7]: 2 h | AUC(0-inf) [3, 7]: 2.85 µM·h | AUC(0-t) [3, 7]: 2.78 µM·h | half-life [3, 7]: 276 min | Cmax [3, 8]: 3890 nM | Tmax at 0 h [3, 8]: 2 h | AUC(0-inf) [3, 8]: 34.8 µM·h | AUC(0-t) [3, 8]: 33.6 µM·h | half-life [3, 8]: 294 min | Kel (4-24h) [3, 4]: -0.179 h⁻¹ | Kel (4-24h) [3, 5]: -0.236 h⁻¹ | Kel (4-24h) [3, 6]: -0.122 h⁻¹ | Kel (4-24h) [3, 7]: -0.152 h⁻¹ | Kel (4-24h) [3, 8]: -0.142 h⁻¹
